Like-named read-outs stand apart in the source and are kept apart here.

The target of one assay is T1, IRAK1 (Homo sapiens, UniProt P51617).
T1 construct: purchased Reaction Biology (RBC HotSpot)
As to the kind of experiment: RBC HotSpot Kinase Assay, IRAK1. It counts as biochemical. As to conditions: isolated kinase enzyme, 33P-ATP, P81 filter-binding. The method in brief: (§1)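 Reactions ran in 20 mM Hepes (pH 7.5) containing 10 mM MgCl2, 1 mM EGTA, 0.1 mM Na3VO4, 2 mM DTT, 0.02 mg/ml BSA, 0.01% Brij35 and 1% DMSO, plus required cofactors. Functional activity readout on the expressible enzyme form, sometimes C-terminally truncated or lacking receptor regulatory regions.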

In assay [1] the test system is NF-κB-inducible SEAP reporter in THP-1-Blue NF-κB cells. As to the kind of experiment: NF-kB SEAP reporter assay in THP-1-Blue NF-κB cells. It counts as cell-based. As to conditions: 24 hours. How it is done: THP-1-Blue NF-κB cells (InvivoGen) carrying a stable integrated NF-κB-inducible secreted embryonic alkaline phosphatase (SEAP) reporter construct were plated at a concentration of 1×10^5 cells per well. The cells were stimulated with Pam3CSK4 (1 ng/mL) or hIL1B (1 ng/mL). After 10-20 minutes, the cells were then treated with vehicle (DMSO) or serial dilutions of the test compounds (10 doses tested for each test compound, with a 1:10 dilution series starting at 1 μM or 3 μM) with a final volume of 200 μL for 24 hours at 37° C. After 24 hours, the cells were centrifuged and 20 μL supernatant was incubated with 180 μL QUANTI-Blue reagent at 37° C. for 30-60 minutes. The levels of NF-κB-induced was measured in a microplate reader at 620 nm.

In the next assay the test system is MOLM14 D835Y cells. As to the kind of experiment: MOLM14 D835Y cell viability assay (Cell Titer Glo). The format is cell-based. The following applies: Homo sapiens, MOLM-14, 48 h, cell viability, Cell Titer Glo, 48 hours; read-out: MOLM14 D835Y IC50. The method in brief: (§2)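 Luminescent ATP read-out (CellTiter-Glo, 15 min room temperature) taken 48 h after compound addition. Cells were MOLM14 carrying FLT3 D835Y or F691L mutations, plated at 1000 cells per well.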

The subject of another assay is MOLM14 F691L cells. As to the kind of experiment: MOLM14 F691L cell viability assay (Cell Titer Glo). It counts as cell-based. The following applies: Homo sapiens, MOLM-14; cell viability, Cell Titer Glo, 48 hours; read-out: MOLM14 F691L IC50. The method in brief: as §2
Another assay deals with T2, IRAK4 (Homo sapiens, UniProt Q9NWZ3).
T2 sequence (Q9NWZ3 1-460): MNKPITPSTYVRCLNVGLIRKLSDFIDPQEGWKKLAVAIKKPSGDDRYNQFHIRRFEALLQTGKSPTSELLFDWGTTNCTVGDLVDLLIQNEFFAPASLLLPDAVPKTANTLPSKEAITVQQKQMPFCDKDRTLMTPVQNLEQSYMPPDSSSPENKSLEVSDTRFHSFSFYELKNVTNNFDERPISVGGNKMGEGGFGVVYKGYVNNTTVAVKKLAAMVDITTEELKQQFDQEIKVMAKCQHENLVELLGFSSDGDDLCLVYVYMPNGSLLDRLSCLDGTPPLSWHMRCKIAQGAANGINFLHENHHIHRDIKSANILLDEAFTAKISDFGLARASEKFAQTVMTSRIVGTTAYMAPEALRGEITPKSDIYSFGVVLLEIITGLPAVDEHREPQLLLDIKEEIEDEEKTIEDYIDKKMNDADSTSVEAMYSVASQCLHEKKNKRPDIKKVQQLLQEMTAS
As to the kind of experiment: RBC HotSpot Kinase Assay, IRAK4. It counts as biochemical. On the set-up: purchased Reaction Biology (RBC HotSpot). As to conditions: isolated kinase enzyme, 33P-ATP, P81 filter-binding. The method in brief:
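Radiometric filter-binding activity assay with isolated recombinant kinase (construct may be truncated or catalytic domain only) in 20 mM Hepes pH 7.5, 10 mM MgCl2, 1 mM EGTA, 2 mM DTT, 1% DMSO. Compound preincubated 20 min with kinase/substrate; reaction started with 33P-ATP, run 2 h at room temperature.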

In a further assay the target is T3, FLT3 (Homo sapiens, UniProt P36888).
T3 sequence (P36888 27-993): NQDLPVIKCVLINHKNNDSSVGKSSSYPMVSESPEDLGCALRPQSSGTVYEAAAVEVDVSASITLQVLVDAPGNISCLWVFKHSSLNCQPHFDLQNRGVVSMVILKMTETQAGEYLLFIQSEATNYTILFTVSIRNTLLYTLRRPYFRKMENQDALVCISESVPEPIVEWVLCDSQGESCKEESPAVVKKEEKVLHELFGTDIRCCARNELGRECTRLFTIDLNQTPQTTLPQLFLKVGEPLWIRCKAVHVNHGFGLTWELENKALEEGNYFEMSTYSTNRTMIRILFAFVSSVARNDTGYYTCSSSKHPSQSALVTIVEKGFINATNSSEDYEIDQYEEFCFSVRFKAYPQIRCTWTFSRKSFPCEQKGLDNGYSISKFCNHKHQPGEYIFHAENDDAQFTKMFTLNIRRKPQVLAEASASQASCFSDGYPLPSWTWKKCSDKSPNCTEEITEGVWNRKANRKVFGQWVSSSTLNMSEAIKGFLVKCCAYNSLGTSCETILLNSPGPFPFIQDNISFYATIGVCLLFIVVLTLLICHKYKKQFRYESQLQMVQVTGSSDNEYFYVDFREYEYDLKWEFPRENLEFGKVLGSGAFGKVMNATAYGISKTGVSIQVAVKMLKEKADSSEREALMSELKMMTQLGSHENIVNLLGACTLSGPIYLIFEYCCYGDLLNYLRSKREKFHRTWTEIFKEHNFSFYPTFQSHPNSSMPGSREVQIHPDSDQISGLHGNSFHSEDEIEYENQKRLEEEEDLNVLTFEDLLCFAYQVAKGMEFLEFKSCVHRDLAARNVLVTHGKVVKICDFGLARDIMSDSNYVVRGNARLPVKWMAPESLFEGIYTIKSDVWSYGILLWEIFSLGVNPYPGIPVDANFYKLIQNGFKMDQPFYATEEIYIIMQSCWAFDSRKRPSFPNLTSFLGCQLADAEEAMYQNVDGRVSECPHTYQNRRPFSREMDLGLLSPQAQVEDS
As to the kind of experiment: RBC HotSpot Kinase Assay, FLT3. The arrangement: purchased Reaction Biology (RBC HotSpot). The format is biochemical. The following applies: isolated kinase enzyme, 33P-ATP, P81 filter-binding. The method in brief:
as §1

The test system of assay [2] is MOLM14-D835Y cells (FLT3-ITD (D835Y) mutant). As to the kind of experiment: Combination drug screening with venetoclax in MOLM14 (D835Y) cells (Cell Titre Glo, 10 × 10). It counts as cell-based. On the set-up: Excess HSA (sum excess HSA score, combination with venetoclax): scale not given here. As to conditions: for Excess HSA (sum excess HSA score, combination with venetoclax): 10 × 10 dataset, Cell Titre Glo at 48 hours, optimal of 4 dose combinations, negative = synergy. As to the method: (§3) These assays were performed using the Cell Titre Glo assay, measured at 48 hours.
(§4) A smaller concentration indicates higher potency to synergize with Venetoclax.

Another assay relates to THP1 cells (FLT3 WT). As to the kind of experiment: Combination drug screening with venetoclax in THP1 cells (Cell Titre Glo, 10 × 10). The format is cell-based. How it is done:
as §3, §4

Setting [3] is: THP-1-Blue NF-κB cells stimulated with Pam3CSK4 (1 ng/mL), read-out: NF-κB Pam3SCK4 IC50.
[4] abbreviates: THP-1-Blue NF-κB cells stimulated with hIL1B (1 ng/mL), read-out: NF-κB IL1B IC50.

T1 sequence (P51617 whole entry): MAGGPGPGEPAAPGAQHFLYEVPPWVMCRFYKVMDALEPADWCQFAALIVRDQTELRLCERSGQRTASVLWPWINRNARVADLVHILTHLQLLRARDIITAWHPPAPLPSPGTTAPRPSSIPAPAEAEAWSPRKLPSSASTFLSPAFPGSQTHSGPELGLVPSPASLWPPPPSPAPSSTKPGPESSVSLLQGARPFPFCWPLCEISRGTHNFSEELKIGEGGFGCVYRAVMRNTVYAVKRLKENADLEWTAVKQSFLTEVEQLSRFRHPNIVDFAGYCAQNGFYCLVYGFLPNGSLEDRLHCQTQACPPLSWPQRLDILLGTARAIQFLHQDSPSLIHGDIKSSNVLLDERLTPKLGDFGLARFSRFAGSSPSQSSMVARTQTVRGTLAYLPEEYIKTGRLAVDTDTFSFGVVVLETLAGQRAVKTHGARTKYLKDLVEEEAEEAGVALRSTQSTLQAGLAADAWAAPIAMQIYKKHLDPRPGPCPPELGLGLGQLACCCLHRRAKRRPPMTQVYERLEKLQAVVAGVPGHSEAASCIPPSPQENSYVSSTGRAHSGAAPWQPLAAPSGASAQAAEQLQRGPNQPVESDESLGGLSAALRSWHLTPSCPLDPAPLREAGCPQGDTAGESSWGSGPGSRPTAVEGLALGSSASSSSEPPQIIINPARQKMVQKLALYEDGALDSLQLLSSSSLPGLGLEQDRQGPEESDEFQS

For `COc1cc2ncc(-c3nc(N[C@@H]4CCCNC4)ncc3F)n2nc1C1COC1` [Compound 94a, (R)-5-fluoro-4-(7-methoxy-6-(oxetan-3-yl)imidazo[1,2-b]pyridazin-3-yl)-N-(piperidin-3-yl)pyrimidin-2-amine], the 50% inhibitory concentration (IC50) on IRAK1 turned out to be 28 nM; in assay [1] (setting [3]), 188 nM; in assay [1] (setting [4]), 206 nM; with MOLM14 D835Y cells, 6 nM; in the assay on MOLM14 F691L cells it was 40 nM; on IRAK4, 4 nM. For the same molecule, the IC50 at FLT3 was less than 0.5 nM.
For `COc1cnc(N[C@H]2CNC[C@@H]2F)nc1-c1cnc2cc(OC)c(C3CC3)nn12` [Compound 104a, 4-(6-cyclopropyl-7-methoxyimidazo[1,2-b]pyridazin-3-yl)-N-((3S,4S)-4-fluoropyrrolidin-3-yl)-5-methoxypyrimidin-2-amine], the IC50 at IRAK1 was found to be 4860 nM; in the assay on MOLM14 D835Y cells it was 711 nM; in the assay on MOLM14 F691L cells, 6340 nM; on IRAK4, 25 nM; on FLT3, 14 nM. In addition, the “Excess HSA (sum excess HSA score, combination with venetoclax)” value in assay [2] was −2179.
Turning to `COc1cc2ncc(-c3nc(N[C@H]4CNC[C@@H]4F)ncc3F)n2nc1N1CCOCC1` [Compound 119a, 5-fluoro-N-((3S,4S)-4-fluoropyrrolidin-3-yl)-4-(7-methoxy-6-morpholinoimidazo[1,2-b]pyridazin-3-yl)pyrimidin-2-amine], the IC50 on IRAK1 is 1 nM; in assay [1] (setting [3]), 57 nM; in assay [1] (setting [4]), 69 nM; in the assay with MOLM14 D835Y cells it was 4 nM; in the assay with MOLM14 F691L cells it was 45 nM; on IRAK4, less than 0.5 nM. Moreover, at FLT3, the IC50 was less than 0.5 nM.
Consider `COc1cc2ncc(-c3nc(N[C@@H]4CCCNC4)ncc3F)n2nc1N1CCOCC1` [Compound 120a, (R)-5-fluoro-4-(7-methoxy-6-morpholinoimidazo[1,2-b]pyridazin-3-yl)-N-(piperidin-3-yl)pyrimidin-2-amine], for which the half-maximal inhibitory concentration (IC50) was 10 nM at IRAK1; 339 nM in assay [1] (setting [3]); 217 nM in assay [1] (setting [4]); 5 nM with MOLM14 D835Y cells; 45 nM in the assay with MOLM14 F691L cells; 10 nM at IRAK4. Further, the IC50 at FLT3 was less than 0.5 nM.
`COc1cc2ncc(-c3nc(N[C@H]4CNCC[C@@H]4F)ncc3F)n2nc1N1CCOCC1` [Compound 121a, 5-fluoro-N-((3S,4S)-4-fluoropiperidin-3-yl)-4-(7-methoxy-6-morpholinoimidazo[1,2-b]pyridazin-3-yl)pyrimidin-2-amine]: the half-maximal inhibitory concentration (IC50) on IRAK1 stood at 1 nM; in assay [1] (setting [3]) it was 89 nM; in assay [1] (setting [4]), 57 nM; in the assay on MOLM14 D835Y cells it was 2 nM; in the assay on MOLM14 F691L cells, 20 nM; on IRAK4, 0.7 nM. The same molecule had an IC50 at FLT3 of less than 0.5 nM.
Take `COc1cc2ncc(-c3nc(N[C@H]4CNCC[C@@H]4F)ncc3F)n2nc1N1CCS(=O)(=O)CC1` [Compound 122a, 4-(3-(5-fluoro-2-(((3S,4S)-4-fluoropiperidin-3-yl)amino)pyrimidin-4-yl)-7-methoxyimidazo[1,2-b]pyridazin-6-yl)thiomorpholine 1,1-dioxide]: the IC50 worked out at 22 nM at IRAK1; 407 nM in assay [1] (setting [3]); 407 nM in assay [1] (setting [4]); 11 nM in the assay with MOLM14 D835Y cells; 127 nM in the assay on MOLM14 F691L cells; 18 nM on IRAK4. At FLT3, the concentration for half-maximal inhibition (IC50) was less than 0.5 nM.
Take `COc1cc2ncc(-c3nc(N[C@H]4CNCC[C@@H]4F)ncc3F)n2nc1[C@H]1C[C@H](O)C1` [Compound 125a, (Trans)-3-(3-(5-fluoro-2-(((3S,4S)-4-fluoropiperidin-3-yl)amino)pyrimidin-4-yl)-7-methoxyimidazo[1,2-b]pyridazin-6-yl)cyclobutan-1-ol]: the IC50 on IRAK1 is less than 0.5 nM; in assay [1] (setting [3]) it was 30 nM; in assay [1] (setting [4]), 29 nM; in the assay with MOLM14 D835Y cells it was 2 nM; in the assay on MOLM14 F691L cells, 16 nM; at IRAK4 it was less than 0.5 nM. The IC50 on FLT3 was less than 0.5 nM.
For `COc1cc2ncc(-c3nc(N[C@H]4CNCC[C@@H]4F)ncc3F)n2nc1[C@H]1C[C@@H](O)C1` [Compound 126a, Cis-3-(3-(5-fluoro-2-(((3S,4S)-4-fluoropiperidin-3-yl)amino)pyrimidin-4-yl)-7-methoxyimidazo[1,2-b]pyridazin-6-yl)cyclobutan-1-ol], the IC50 on IRAK1 is 37 nM; in assay [1] (setting [3]), 192 nM; in assay [1] (setting [4]) it was 183 nM; in the assay on MOLM14 D835Y cells, 4 nM; with MOLM14 F691L cells, 80 nM; on IRAK4 it was less than 0.5 nM. The molecule further had a concentration for half-maximal inhibition (IC50) at FLT3 of less than 0.5 nM.
Consider `CCc1nc(C(N)=O)c(Nc2ccc(N3CCC(N4CCN(C)CC4)CC3)c(OC)c2)nc1NC1CCOCC1` [Gilteritinib, reference compound], for which the “Excess HSA (sum excess HSA score, combination with venetoclax)” value with THP1 cells (FLT3 WT) (10 × 10 dataset, Cell Titre Glo at 48 hours, optimal of 4 dose combinations, negative = synergy) is −1626; in assay [2], −1556. For the same molecule, the “Concentration needed to decrease the 312.5 nM Venetoclax response to <20%” value in the assay with THP1 cells (FLT3 WT) (Cell Titer Glo at 48 hours) turned out to be 10 µM. For the same molecule, the “Concentration of a compound of the disclosure, or gilteritinib, needed to decrease the 62.5 nM Ven response to <10% in MOLM14(D835Y) cells” value in assay [2] (combination with 62.5 nM Venetoclax, Cell Titer Glo, 48 hours, response <10%) is given as 125 nM.

Source of the values: US20260226048A1, “MULTI-CYCLIC IRAK AND FLT3 INHIBITING COMPOUNDS AND USES THEREOF” (CHILDREN'S HOSPITAL MEDICAL CENTER, priority 2023, published 2026).
